Values of other authors, collected in patent US8961477B2, “Delivery of immune response modifier compounds” (3M Innovative Properties Company, priority 2003, dated 2015).

Assays:
TLR 7 = molecular target: T1, TLR 7 (Homo sapiens, UniProt Q9NYK1); conditions: statement in words, no data given
T1 construct: expressed in transfected cells
T1 sequence (Q9NYK1 27-1049): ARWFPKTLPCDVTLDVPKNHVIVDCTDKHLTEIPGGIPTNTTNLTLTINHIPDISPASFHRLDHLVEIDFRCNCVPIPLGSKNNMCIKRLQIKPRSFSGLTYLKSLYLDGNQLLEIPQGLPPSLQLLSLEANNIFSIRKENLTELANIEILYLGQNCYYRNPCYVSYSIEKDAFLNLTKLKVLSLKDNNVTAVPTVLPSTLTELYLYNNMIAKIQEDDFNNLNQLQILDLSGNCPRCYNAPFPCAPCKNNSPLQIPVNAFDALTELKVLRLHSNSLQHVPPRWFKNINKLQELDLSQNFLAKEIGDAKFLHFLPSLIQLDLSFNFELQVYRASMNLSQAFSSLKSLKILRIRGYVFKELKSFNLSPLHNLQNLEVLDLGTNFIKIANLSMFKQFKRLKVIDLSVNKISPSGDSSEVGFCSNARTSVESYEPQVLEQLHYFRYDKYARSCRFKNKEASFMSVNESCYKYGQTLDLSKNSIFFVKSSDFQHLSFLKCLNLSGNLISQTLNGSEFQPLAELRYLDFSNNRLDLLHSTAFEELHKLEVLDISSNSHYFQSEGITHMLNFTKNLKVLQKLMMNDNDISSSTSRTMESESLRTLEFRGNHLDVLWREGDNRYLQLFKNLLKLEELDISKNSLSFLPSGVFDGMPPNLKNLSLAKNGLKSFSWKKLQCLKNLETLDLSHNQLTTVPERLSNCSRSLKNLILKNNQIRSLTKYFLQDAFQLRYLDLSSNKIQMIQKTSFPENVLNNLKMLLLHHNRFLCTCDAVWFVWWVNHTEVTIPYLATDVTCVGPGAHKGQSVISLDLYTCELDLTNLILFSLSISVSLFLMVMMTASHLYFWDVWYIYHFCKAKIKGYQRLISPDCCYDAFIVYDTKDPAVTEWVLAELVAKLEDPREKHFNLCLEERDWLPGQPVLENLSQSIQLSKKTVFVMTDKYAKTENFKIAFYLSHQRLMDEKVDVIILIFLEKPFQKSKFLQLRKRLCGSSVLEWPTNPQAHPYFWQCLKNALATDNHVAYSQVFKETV

TLR 8 = molecular target: T2, TLR 8 (Homo sapiens, UniProt Q9NR97); conditions: statement in words, no data given
T2 construct: expressed in transfected cells
T2 sequence (Q9NR97 27-1041): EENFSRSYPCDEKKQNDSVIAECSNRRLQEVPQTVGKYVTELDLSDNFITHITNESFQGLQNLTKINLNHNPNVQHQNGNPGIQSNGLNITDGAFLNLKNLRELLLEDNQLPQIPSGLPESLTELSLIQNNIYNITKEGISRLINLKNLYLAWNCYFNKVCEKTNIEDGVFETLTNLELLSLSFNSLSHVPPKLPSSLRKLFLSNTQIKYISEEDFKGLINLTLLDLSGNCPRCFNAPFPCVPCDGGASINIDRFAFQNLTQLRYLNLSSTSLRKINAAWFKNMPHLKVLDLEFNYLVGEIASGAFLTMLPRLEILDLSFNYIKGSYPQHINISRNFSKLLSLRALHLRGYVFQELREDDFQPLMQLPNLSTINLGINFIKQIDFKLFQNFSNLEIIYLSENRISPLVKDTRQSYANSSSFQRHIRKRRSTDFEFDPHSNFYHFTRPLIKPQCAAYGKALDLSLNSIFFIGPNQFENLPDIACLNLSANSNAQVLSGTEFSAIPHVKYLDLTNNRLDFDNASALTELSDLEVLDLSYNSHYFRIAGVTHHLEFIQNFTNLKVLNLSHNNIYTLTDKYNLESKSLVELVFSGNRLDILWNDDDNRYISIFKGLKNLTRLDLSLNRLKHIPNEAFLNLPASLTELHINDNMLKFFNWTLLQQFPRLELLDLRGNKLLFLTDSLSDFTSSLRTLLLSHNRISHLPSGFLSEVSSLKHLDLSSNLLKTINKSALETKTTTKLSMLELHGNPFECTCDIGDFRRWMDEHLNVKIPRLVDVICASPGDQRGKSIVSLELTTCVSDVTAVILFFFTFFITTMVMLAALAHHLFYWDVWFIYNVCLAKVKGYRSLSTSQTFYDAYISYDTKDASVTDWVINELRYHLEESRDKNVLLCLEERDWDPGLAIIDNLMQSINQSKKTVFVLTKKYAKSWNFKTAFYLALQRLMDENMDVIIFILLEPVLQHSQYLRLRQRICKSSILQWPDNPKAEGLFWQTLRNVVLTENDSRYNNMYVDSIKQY

TLR 6 = molecular target: T3, TLR 6 (Homo sapiens, UniProt Q9Y2C9); conditions: statement in words, no data given
T3 construct: expressed in transfected cells
T3 sequence (Q9Y2C9 32-796): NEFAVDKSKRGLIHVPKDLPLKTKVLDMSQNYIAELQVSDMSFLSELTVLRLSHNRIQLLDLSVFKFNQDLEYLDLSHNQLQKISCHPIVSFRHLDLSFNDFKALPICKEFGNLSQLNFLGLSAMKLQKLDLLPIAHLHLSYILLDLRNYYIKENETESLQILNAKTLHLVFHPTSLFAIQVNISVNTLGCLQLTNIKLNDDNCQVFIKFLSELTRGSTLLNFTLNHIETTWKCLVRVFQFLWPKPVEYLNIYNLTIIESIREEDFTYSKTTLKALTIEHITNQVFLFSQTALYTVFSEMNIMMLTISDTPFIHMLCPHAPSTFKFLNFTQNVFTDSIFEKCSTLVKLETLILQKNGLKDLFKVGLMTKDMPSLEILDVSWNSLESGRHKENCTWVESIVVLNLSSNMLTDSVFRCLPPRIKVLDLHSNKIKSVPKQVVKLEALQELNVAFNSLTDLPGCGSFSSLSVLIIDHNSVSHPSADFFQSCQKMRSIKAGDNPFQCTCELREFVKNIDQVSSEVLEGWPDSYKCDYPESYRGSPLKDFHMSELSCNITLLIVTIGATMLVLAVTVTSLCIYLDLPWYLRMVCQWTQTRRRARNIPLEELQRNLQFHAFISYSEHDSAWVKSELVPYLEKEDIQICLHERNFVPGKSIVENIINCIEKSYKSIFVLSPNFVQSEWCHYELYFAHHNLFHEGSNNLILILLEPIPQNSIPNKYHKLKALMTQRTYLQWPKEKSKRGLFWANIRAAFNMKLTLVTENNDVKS

[1] = delivered systemically

| SMILES | TLR 7 agonist activity (TLR 7) | TLR 8 agonist activity (TLR 8) | TLR 6 activity (TLR 6) | CNS effect compared to imiquimod [1] |
| --- | --- | --- | --- | --- |
| CCOCc1nc2c(N)nc3c(c2n1CC(C)(C)O)CCCC3 [4-amino-2-(ethoxymethyl)-α,α-dimethyl-6,7,8,9-tetrahydro-1H-imidazo[4,5-c]quinoline-1-ethanol] | TLR 7 and TLR 8 agonist | TLR 7 and TLR 8 agonist | – | – |
| CC(C)(O)Cn1cnc2c(N)nc3ccccc3c21 [4-amino-α,α-dimethyl-1H-imidazo[4,5-c]quinoline-1-ethanol] | predominantly a TLR 7 agonist | not a substantial TLR 8 agonist | TLR 6 activity | much lower CNS effect |
